Measured values taken from patent US20250353873A1, “COMPOUNDS AND METHODS FOR MODULATING APOE EXPRESSION” (Ionis Pharmaceuticals, Inc., priority 2024, published 2025).
“And” between values parts separate entries of the source, which are not always exact repeats. Equal values may be shown once. Strand notation (5' to 3'): a small letter for the sugar, then the base; units joined by * are phosphorothioate-linked, units joined directly phosphodiester-linked; [ ] holds rarer units or linkages, { } end groups; capitals alone tell only the bases. [ms] = mesyl phosphoramidate linkage; e = 2'-O-(2-methoxyethyl) (MOE); k = constrained ethyl (cEt); [5mC] = 5-methylcytosine; d = 2'-deoxy (DNA)

Key:
BJAB cells [1] = conditions: known behaviour in the assay; cited from earlier work
human APOE RNA [2] = assay: Dose-dependent inhibition of human APOE RNA in HepG2 cells, electroporation, 50,000 cells per well, RT-PCR normalized to GAPDH (Example 4, Tables 8-10); assay type: cell-based; conditions: HepG2, electroporation, 16-hour treatment
In short: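 HepG2 cells, 50,000 per well, electroporated with modified oligonucleotide at various concentrations. APOE RNA quantified by RT-PCR with human primer probe set RTS3073, normalized to GAPDH. Values are percent APOE RNA relative to untreated control cells.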

human APOE RNA [3] = assay: Activity in APOE 1549 knock-in mice, single ICV bolus, 2 weeks (Example 7); assay type: in vivo; conditions: single ICV bolus of 300 μg, two weeks post treatment
In short: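 Human APOE knock-in mice (model 41549), 2 per group, given a single 300 µg ICV bolus of oligonucleotide, with PBS as control. After 2 weeks, APOE RNA in cortex and spinal cord measured by RT-qPCR, normalized to mouse Ppia, and expressed as % of PBS control.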

human APOE RNA [4] = assay: Activity in APOE C57BL/6NTac-Apoeem7250 knock-in mice, single ICV bolus, 8 weeks (Example 11); assay type: in vivo; conditions: for reduction of human APOE RNA in the cortex: APOE knock-in mouse model, 8 weeks post administration, assay of Example 11; for APOE RNA (% control) Cortex / APOE RNA (% control) Spinal Cord: single ICV bolus 300 μg, 8 weeks post treatment, normalized to mouse Ppia
In short: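 Human APOE knock-in C57BL/6NTac mice given one ICV bolus of 300 μg oligonucleotide; PBS-dosed group as control. At 8 weeks, cortex and spinal cord RNA measured by qRT-PCR (human probe RTS3073), normalized to mouse Ppia, expressed as % of PBS control.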

human APOE RNA [5] = assay: Activity in APOE C57BL/6NTac-Apoeem7250 knock-in mice, single ICV bolus, 20 weeks (Example 13); assay type: in vivo; conditions: single ICV bolus 300 μg, 20 weeks post treatment, normalized to mouse Ppia
In short: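 Knock-in mice (n=4) given a single ICV bolus of 300 μg oligonucleotide, PBS as control. After 20 weeks, human APOE RNA in cortex and spinal cord measured by RT-qPCR, normalized to mouse Ppia, expressed as % of PBS-treated animals.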

BJAB cells [6] = tested on: BJAB cells
Experimental: Human APOE modified oligonucleotides were tested for potential immunostimulatory properties in an in vitro human BJAB activation assay.
Human Burkitt lymphoma B cells, BJAB cells (DSMZ, Cat #ACC 757) were cultured in RPMI1640 medium containing 20% fetal bovine serum at 37° C. and 5% CO2. Cells were maintained at a density of 0.5-0.7×10^6 cells per milliliter. Cells were transferred to 50 mL conical Falcon tubes and centrifuged at 330 RCF for 5 minutes before being resuspended at a concentration of 7.5×10^4 cells per milliliter in RPMI culture medium containing penicillin and streptomycin. 50 μL of the cell suspension was added to a v-bottom tissue culture treated 96-well microplate. 11 μl of 10× concentrated modified oligonucleotides was then added to the plate for a final concentration of 1.6 μM and incubated for 24 hours at 37° C. and 5% CO2.
After a treatment period of 24 hours, total RNA was isolated from the cells and CCL22 RNA levels were measured by quantitative real-time RT-PCR. CCL22 RNA levels were measured by human primer-probe set RTS49260 (forward sequence [sequence], designated herein as SEQ ID NO: 19; reverse sequence [sequence], designated herein as SEQ ID NO: 20; probe sequence [sequence], designated herein as SEQ ID NO: 21). CCL22 RNA levels were normalized to total RNA content, as measured by GAPDH. Human GAPDH was measured using the human primer-probe set RTS104 (forward sequence [sequence], designated herein as SEQ ID NO: 10; reverse sequence [sequence], designated herein as SEQ ID NO: 11; probe sequence [sequence], designated herein as SEQ ID NO: 12). Levels of CCL22 RNA is presented log fold increase of CCL22, relative to untreated control cells (UTC). The assignment of the immunostimulatory properties of the test compounds is based on the immunostimulatory properties of the internal control compounds in each assay.

human APOE RNA [7] = assay: Dose-dependent inhibition of human APOE RNA in HepG2 cells, electroporation, 24 hours (Example 6); assay type: cell-based
In short: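 HepG2 cells, 50,000 per well, electroporated with various oligonucleotide concentrations. APOE RNA measured with primer probe set RTS3073, normalized to GAPDH (RTS104), expressed as % of untreated control; IC50 then calculated.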

human APOE RNA [8] = assay: Activity in APOE C57BL/6NTac-Apoeem7250 knock-in mice, single ICV bolus, 2 weeks (Example 9); assay type: in vivo; conditions: single ICV bolus 300 μg
Experimental: Modified oligonucleotides described above were tested in the APOE knock-in mouse model C57BL/6NTac-Apoeem7250_B-A02(APOE)Tac, a heterozygous APOE mouse model. APOE knock-in mice used in this study express the full-length human APOE gene knocked into the mouse locus. Humanization of APOE gene was done via CRISPR/Cas-9-mediated gene editing, allowing for generation of a model with constitutive expression of human APOE gene. Targeting strategy was based on NCBI transcripts NM_009696.4 (mouse) and NM_000041.4 (human). Mouse genomic sequence from exon 1 to exon 4 (including the 5′ and 3′ UTRs) was replaced with the human counterpart from 141 bp upstream of exon 1 to 28 bp downstream of exon 4. A plasmid allowing expression of Cas9 mRNA, specific gRNA, and the puromycin resistance cassette, and a plasmid containing the homology regions of the mouse APOE gene, and the replaced human region were co-transfected into the Taconic Biosciences C57BL/6N Tac ES cell line. Homologous recombination clones were isolated using positive puromycin selection, and humanized allele was obtained after Cas9-mediated gene editing. C57BL/6NTac-Apoeem7250_B-A02(APOE)Tac mice were used in the in vivo experiments described below.
APOE C57BL/6NTac-Apoeem7250 knock-in mice were divided into groups of 3 mice each. Each mouse received a single ICV bolus of 300 μg of modified oligonucleotide. A group of 3 mice received a single ICV bolus with PBS as a negative control.
Two weeks post treatment, mice were sacrificed and RNA was extracted from cortical brain tissue and spinal cord for quantitative real-time RT-PCR analysis of RNA expression of APOE using human primer probe set RTS3073 (described herein above). APOE RNA levels were normalized to mouse Ppia. Mouse Ppia was amplified using primer probe set m_cyclo24 (described herein above). Results are presented as percent human APOE RNA relative to the amount of human APOE RNA in PBS treated animals, (% control).

human APOE RNA [9] = assay: Activity in APOE C57BL/6NTac-Apoeem7250 knock-in mice, single ICV bolus, 4 weeks (Example 10); assay type: in vivo; conditions: single ICV bolus 300 μg
In short: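 Knock-in mice (2–4 per group) received one 300 μg ICV bolus of oligonucleotide or PBS. After four weeks, human APOE RNA in cortex and spinal cord measured by RT-qPCR (primer probe set RTS3073), normalized to mouse Ppia, expressed as % of PBS controls.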

human APOE RNA [10] = assay: Activity in APOE C57BL/6NTac-Apoeem7250 knock-in mice, single ICV bolus, 16 weeks (Example 12); assay type: in vivo; conditions: single ICV bolus 300 μg, 16 weeks post treatment, normalized to mouse Ppia
In short: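 Knock-in mice (3-4 per group) received one ICV bolus of 300 μg oligonucleotide, PBS as control. After 16 weeks, human APOE RNA in cortex and spinal cord measured by RT-qPCR, normalized to mouse Ppia, and reported as % of PBS control.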

## Compound No. 104838: 5-10-5 MOE gapmer, GCTGATTAGAGAGAGGTCCC, internal standard (negative control) (sugars from the 5' end e5 d10 e5, backbone and methylation of C not given here)
BJAB cells [1]
  responder class for CCL22 release in the BJAB assay (internal standard): non-responder (non-inflammatory)

## Compound No. 1517891: comparator of WO 2022/066956; ACTTGGTGAATCTTTATTAA, sugar eeeeeddddddddddeeeee, linkages sooosssssssssssooss (MOE gapmer, mixed PS/PO linkages, chemistry not fully specified) [reference compound]
Human APOE RNA [2]; 5 nM
  APOE RNA (% UTC): 82 % UTC
Human APOE RNA [2]; 13 nM
  APOE RNA (% UTC): 75 % UTC
Human APOE RNA [2]; 33 nM
  APOE RNA (% UTC): 81 % UTC
Human APOE RNA [2]; 82 nM
  APOE RNA (% UTC): 83 % UTC
Human APOE RNA [2]; 205 nM
  APOE RNA (% UTC): 65 % UTC
Human APOE RNA [2]; 512 nM
  APOE RNA (% UTC): 48 % UTC
Human APOE RNA [2]; 1,280 nM
  APOE RNA (% UTC): 36 % UTC
Human APOE RNA [2]; 3,200 nM
  APOE RNA (% UTC): 36 % UTC
Human APOE RNA [2]; 8,000 nM
  APOE RNA (% UTC): 17 % UTC
Human APOE RNA [2]
  IC50: 550 nM
Human APOE RNA [3]; Table 16
  APOE RNA (% control) Cortex: 49 % control
  APOE RNA (% control) Spinal Cord: 65 % control
Human APOE RNA [4]
  reduction of human APOE RNA in the cortex: 44%
  APOE RNA (% control) Cortex: 56 % control
  APOE RNA (% control) Spinal Cord: 29 % control
Human APOE RNA [5]
  APOE RNA (% control) Cortex: 93 % control and 97 % control
  APOE RNA (% control) Spinal Cord: 92 % control and 71 % control
BJAB cells [6]
  inflammatory response in human BJAB cells: mildly inflammatory

## Compound No. 785674: kk-9-eeekk cEt gapmer with MOE modifications, TATTTCTGCTCCAGGT, internal standard (sugars from the 5' end k2 d9 e3 k2, backbone and methylation of C not given here)
BJAB cells [1]
  responder class for CCL22 release in the BJAB assay (internal standard): high responder (inflammatory)

## 1693101: 6-10-4 MOE gapmer CTTGGTGAATCTTTATTAAA, linkages sssssozzzssssszssss (e[5mC]*eT*eT*eG*eG*eTdG[ms]dA[ms]dA[ms]dT*d[5mC]*dT*dT*dT*dA[ms]dT*eT*eA*eA*eA) [compound 1693101]
Human APOE RNA [7]
  IC50: 4030 nM
Human APOE RNA [7]; 5 nM
  APOE RNA (% UTC): 70 % UTC
Human APOE RNA [7]; 13 nM
  APOE RNA (% UTC): 91 % UTC
Human APOE RNA [7]; 33 nM
  APOE RNA (% UTC): 120 % UTC
Human APOE RNA [7]; 82 nM
  APOE RNA (% UTC): 111 % UTC
Human APOE RNA [7]; 205 nM
  APOE RNA (% UTC): 95 % UTC
Human APOE RNA [7]; 512 nM
  APOE RNA (% UTC): 75 % UTC
Human APOE RNA [7]; 1,280 nM
  APOE RNA (% UTC): 53 % UTC
Human APOE RNA [7]; 3,200 nM
  APOE RNA (% UTC): 58 % UTC
Human APOE RNA [7]; 8,000 nM
  APOE RNA (% UTC): 49 % UTC
Human APOE RNA [7]; 20,000 nM
  APOE RNA (% UTC): 20 % UTC
Human APOE RNA [3]; Table 17
  APOE RNA (% control) Cortex: 79 % control
  APOE RNA (% control) Spinal Cord: 57 % control
Human APOE RNA [8]; Cortex
  APOE RNA (% control) Cortex: 62 % control
Human APOE RNA [8]; Spinal Cord
  APOE RNA (% control) Spinal Cord: 55 % control
Human APOE RNA [9]; Cortex, C57BL/6NTac-Apoeem7250 knock-in mice, 4 weeks (Table 21)
  APOE RNA (% control) Cortex: 71 % control
Human APOE RNA [9]; Cortex, C57BL/6NTac-Apoeem7250 knock-in mice, 4 weeks (Table 22)
  APOE RNA (% control) Cortex: 57 % control
Human APOE RNA [9]; Spinal Cord, C57BL/6NTac-Apoeem7250 knock-in mice, 4 weeks (Table 21)
  APOE RNA (% control) Spinal Cord: 50 % control
Human APOE RNA [9]; Spinal Cord, C57BL/6NTac-Apoeem7250 knock-in mice, 4 weeks (Table 22)
  APOE RNA (% control) Spinal Cord: 77 % control
Human APOE RNA [9]; cortex, 4 weeks post treatment, normalized to mouse Ppia
  APOE RNA (% control) Cortex: 57 % control
Human APOE RNA [9]; spinal cord, 4 weeks post treatment, normalized to mouse Ppia
  APOE RNA (% control) Spinal Cord: 56 % control
Human APOE RNA [4]
  APOE RNA (% control) Cortex: 58 % control
  APOE RNA (% control) Spinal Cord: 46 % control
Human APOE RNA [10]; cortex
  APOE RNA (% control) Cortex: 71 % control
Human APOE RNA [10]; spinal cord
  APOE RNA (% control) Spinal Cord: 56 % control

## Compound No. 353512: 3-14-3 MOE gapmer, TCCCATTTCAGGAGACCTGG, internal standard (sugars from the 5' end e3 d14 e3, backbone and methylation of C not given here)
BJAB cells [1]
  responder class for CCL22 release in the BJAB assay (internal standard): high responder (inflammatory)

## Compound No. 735746: 3-10-3 cEt gapmer, TTCAAGGTGAACTGTT, internal standard (sugars from the 5' end k3 d10 k3, backbone and methylation of C not given here)
BJAB cells [1]
  responder class for CCL22 release in the BJAB assay (internal standard): moderate responder (mildly inflammatory)

## Compound No. 1517853: comparator of WO 2022/066956; TTGGTGAATCTTTATTAAAC, sugar eeeeeddddddddddeeeee, linkages sooosssssssssssooss (MOE gapmer, mixed PS/PO linkages, chemistry not fully specified) [reference compound]
Human APOE RNA [3]; Table 16
  APOE RNA (% control) Cortex: 53 % control
  APOE RNA (% control) Spinal Cord: 65 % control
Human APOE RNA [4]
  reduction of human APOE RNA in the cortex: 33%
  APOE RNA (% control) Cortex: 67 % control
  APOE RNA (% control) Spinal Cord: 50 % control
Human APOE RNA [5]
  APOE RNA (% control) Cortex: 99 % control
  APOE RNA (% control) Spinal Cord: 98 % control
BJAB cells [6]
  inflammatory response in human BJAB cells: highly inflammatory
